Source: ChEMBL document CHEMBL5247585, “Design, synthesis, and evaluation of 4(1H)-quinolinone and urea derivatives as KRASG12C inhibitors with potent antitumor activity against KRAS-mutant non-small cell lung cancer” (Eur J Med Chem, 2022)
Calls of active or inactive are those of the source. The calls are words filed in the database; no cut-off is given here.

Columns and labels:
NCI-H2228 = assay: Antiproliferative activity against human NCI-H2228 cells harboring wild type KRAS assessed as reduction in cell viability incubated for 72 hrs by MTT assay; type: functional, cell-based; conditions: NCI-H2228, 72 h
A549 = assay: Antiproliferative activity against human A549 cells harboring KRAS G12S mutant assessed as reduction in cell viability incubated for 72 hrs by MTT assay; type: functional, cell-based; conditions: A549, 72 h
NCI-H358 = assay: Antiproliferative activity against human NCI-H358 cells harboring KRAS G12C mutant assessed as reduction in cell viability incubated for 72 hrs by MTT assay; type: functional, cell-based; conditions: NCI-H358, 72 h
NCI-H23 = assay: Antiproliferative activity against human NCI-H23 cells harboring KRAS G12C mutant assessed as reduction in cell viability incubated for 72 hrs by MTT assay; type: functional, cell-based; conditions: NCI-H23, 72 h
[1] = Selectivity index, ratio of IC50 for human A549 cells harboring KRAS G12S mutant to IC50 for human NCI-H358 cells harboring KRAS G12C mutant; type: functional
[2] = Selectivity index, ratio of IC50 for human NCI-H2228 cells harboring wild type KRAS to IC50 for human NCI-H23 cells harboring KRAS G12C mutant; type: functional
[3] = Selectivity index, ratio of IC50 for human A549 cells harboring KRAS G12S mutant to IC50 for human NCI-H23 cells harboring KRAS G12C mutant; type: functional
[4] = Selectivity index, ratio of IC50 for human NCI-H2228 cells harboring wild type KRAS to IC50 for human NCI-H358 cells harboring KRAS G12C mutant; type: functional
[5] = test system: GTPase KRas (Homo sapiens), P01116 [G12C]; assay: Covalent binding affinity to 6His tagged GDP bound human KRAS G12C mutant (1 to 169 residues) expressed in Escherichia coli BL21 (DE3) cells at 200 uM incubated for 24 hrs by LC-MS /MS analysis
[6] = test system: GTPase KRas (Homo sapiens), P01116 [G12C]; assay: Inhibition of 6His tagged Mant-GDP loaded human KRAS G12C mutant (1 to 169 residues) expressed in Escherichia coli BL21 (DE3) cells assessed as inhibition of SOS1-mediated nucleotide exchange at 10 uM preincubated with compound for 1 hrs followed by addition of GTP and SOS1 protein and measured every 90 sec for 2 hrs by fluorescence based assay; conditions: time 3.0 hrs
[7] = test system: GTPase KRas (Homo sapiens), P01116 [G12C]; assay: Inhibition of 6His tagged Mant-GDP loaded human KRAS G12C mutant (1 to 169 residues) expressed in Escherichia coli BL21 (DE3) cells assessed as inhibition of […] nucleotide exchange at 10 uM preincubated with compound for 1 hrs followed by addition of GTP and EDTA and measured every 90 sec for 2 hrs by fluorescence based assay; conditions: time 3.0 hrs
[8] = molecular target: GTPase KRas (Homo sapiens) (UniProt P01116); assay: Covalent binding affinity to 6his tagged GDP bound human wildtype KRAS expressed in Escherichia coli BL21 (DE3) cells at 200 uM incubated for 24 hrs by LC-MS/MS analysis
[9] = Cytotoxicity against human MRC5 cells assessed as reduction in cell viability incubated for 72 hrs by MTT assay; type: toxicity, cell-based
NCI-H441 = assay: Antiproliferative activity against human NCI-H441 cells harboring KRAS G12V mutant assessed as reduction in cell viability incubated for 72 hrs by MTT assay; type: functional, cell-based; conditions: NCI-H441, 72 h
SK-LU-1 = assay: Antiproliferative activity against human SK-LU-1 cells harboring KRAS G12D mutant assessed as reduction in cell viability incubated for 72 hrs by MTT assay; type: functional, cell-based; conditions: SK-LU-1, 72 h

C=CC(=O)NC1CCN(C(=O)c2cc(=O)c3cc(Cl)ccc3[nH]2)CC1
IC50 (NCI-H2228): > 100 µM
IC50 (A549): > 100 µM
IC50 (NCI-H358): 29.7 µM
IC50 (NCI-H23): 34.8 µM

C=CS(=O)(=O)NC1CCN(C(=O)c2cc(=O)c3cc(Cl)c(I)cc3[nH]2)CC1
IC50 (NCI-H2228): 19.4 µM
IC50 (A549): 11.9 µM
Ratio IC50 [1]: 2
IC50 (NCI-H358): 9.1 µM
Ratio IC50 [2]: 2
IC50 (NCI-H23): 6.4 µM
Ratio IC50 [3]: 2
Ratio IC50 [4]: 2

C=CS(=O)(=O)N1CCC(NC(=O)Nc2ccc(Cl)cc2)CC1
IC50 (NCI-H2228): 27.5 µM
IC50 (A549): > 100 µM
IC50 (NCI-H358): 31.9 µM
IC50 (NCI-H23): 18.9 µM

C=CC(=O)N1CCC(NC(=O)Nc2ccc(Cl)cc2)CC1
IC50 (NCI-H2228): > 100 µM
IC50 (A549): > 100 µM
IC50 (NCI-H358): > 100 µM
IC50 (NCI-H23): > 100 µM

O=C(Nc1ccc(Cl)c(-c2ccccc2F)c1)NC1CCN(C(=O)CCl)CC1
IC50 (NCI-H2228): 34.9 µM
IC50 (A549): > 100 µM
IC50 (NCI-H358): 37.7 µM
IC50 (NCI-H23): 42.8 µM

O=C(Nc1ccc(Cl)cc1)NC1CCN(C(=O)CCl)CC1
IC50 (NCI-H2228): 14.1 µM
IC50 (A549): 17.5 µM
Ratio IC50 [1]: 3
IC50 (NCI-H358): 3.8 µM
Activity [5]: Active
Ratio IC50 [2]: 3
inhibition [6]: Active
inhibition [7]: inactive
IC50 (NCI-H23): 5.1 µM
Activity [8]: inactive
Ratio IC50 [3]: 3
Ratio IC50 [4]: 3

C=CC(=O)N1CC[C@H](NC(=O)c2cc(=O)c3cc(Cl)c(I)cc3[nH]2)C1
IC50 (NCI-H2228): 13.1 µM
IC50 (A549): 24.4 µM
IC50 (NCI-H358): 14.9 µM
IC50 (NCI-H23): 10.3 µM

C=CC(=O)N1CC[C@H](NC(=O)Nc2ccc(Cl)c(Cl)c2)C1
IC50 (NCI-H2228): 65.3 µM
IC50 (A549): > 100 µM
IC50 (NCI-H358): 34.2 µM
IC50 (NCI-H23): 40.8 µM

COc1cccc(F)c1-c1cc(NC(=O)NC2CCN(C(=O)CCl)CC2)ccc1Cl
IC50 (NCI-H2228): > 100 µM
IC50 (A549): 66.9 µM
IC50 (NCI-H358): 27.8 µM
IC50 (NCI-H23): 31.1 µM

C=CC(=O)N1CC[C@@H](NC(=O)Nc2ccc(Cl)cc2)C1
IC50 (NCI-H2228): > 100 µM
IC50 (A549): > 100 µM
IC50 (NCI-H358): > 100 µM
IC50 (NCI-H23): > 100 µM

C=CC(=O)N1CC[C@H](NC(=O)Nc2ccc(Cl)c(C(F)(F)F)c2)C1
IC50 (NCI-H2228): 38.2 µM
IC50 (A549): > 100 µM
IC50 (NCI-H358): 22.8 µM
IC50 (NCI-H23): 28.9 µM

C=CC(=O)N1CCC(NC(=O)Nc2ccc(Cl)c(Cl)c2)CC1
IC50 (NCI-H2228): 53.2 µM
IC50 (A549): > 100 µM
IC50 (NCI-H358): > 100 µM
IC50 (NCI-H23): > 100 µM

O=C(Nc1ccc(Cl)c(C(F)(F)F)c1)N[C@@H]1CCN(C(=O)CCl)C1
IC50 (NCI-H2228): 4 µM
IC50 (A549): 26.1 µM
IC50 (NCI-H358): 4.5 µM
IC50 (NCI-H23): 4.6 µM

C=CC(=O)N1CC[C@H](NC(=O)Nc2ccc(Cl)cc2)C1
IC50 (NCI-H2228): > 100 µM
IC50 (A549): > 100 µM
IC50 (NCI-H358): > 100 µM
IC50 (NCI-H23): > 100 µM

O=C(Nc1ccc(Cl)c(C(F)(F)F)c1)N[C@H]1CCN(C(=O)CCl)C1
IC50 (NCI-H2228): 7.3 µM
IC50 (A549): 11.3 µM
Ratio IC50 [1]: 3
IC50 (NCI-H358): 2.4 µM
Ratio IC50 [2]: 3
IC50 (NCI-H23): 1.5 µM
Ratio IC50 [3]: 3
Ratio IC50 [4]: 3

O=C(CCl)N1CCN(C(=O)Nc2ccc(Cl)c(C(F)(F)F)c2)CC1
IC50 (NCI-H2228): 0.6 µM
IC50 (A549): 1.5 µM
IC50 (NCI-H358): 4.6 µM
IC50 (NCI-H23): 9.2 µM

C=CC(=O)NC1CCN(C(=O)c2cc(=O)c3ccccc3[nH]2)CC1
IC50 (NCI-H2228): > 100 µM
IC50 (A549): > 100 µM
IC50 (NCI-H358): 44.8 µM
IC50 (NCI-H23): > 100 µM

O=C(CCl)NC1CCN(C(=O)c2cc(=O)c3cc(Cl)c(I)cc3[nH]2)CC1
IC50 (NCI-H2228): 8.6 µM
IC50 (A549): 9.8 µM
Ratio IC50 [1]: 2
IC50 (NCI-H358): 4.5 µM
Ratio IC50 [2]: 2
IC50 (NCI-H23): 2.7 µM
Ratio IC50 [3]: 2
Ratio IC50 [4]: 2

O=C(NC1CCN(C(=O)CCl)C1)c1cc(=O)c2cc(Cl)c(I)cc2[nH]1 (stereo not drawn)
IC50 (NCI-H2228): 8.2 µM
IC50 (A549): 10.2 µM
IC50 (NCI-H358): 5.4 µM
IC50 (NCI-H23): 3.8 µM

C=CC(=O)NC1CCN(C(=O)c2cc(=O)c3cc(Cl)c(C(F)(F)F)cc3[nH]2)CC1
IC50 (NCI-H2228): 42.4 µM
IC50 (A549): 46.2 µM
IC50 (NCI-H358): 18.5 µM
IC50 (NCI-H23): 8.2 µM

C=CS(=O)(=O)N1CCC(NC(=O)Nc2ccc(Cl)c(C(F)(F)F)c2)CC1
IC50 (NCI-H2228): 6.4 µM
IC50 (A549): 3.3 µM
IC50 (NCI-H358): 4.2 µM
IC50 (NCI-H23): 2.6 µM

O=C(Nc1ccc(Cl)c(Cl)c1)NC1CCN(C(=O)CCl)CC1
IC50 (NCI-H2228): 9.2 µM
IC50 (A549): 7.4 µM
IC50 (NCI-H358): 5.5 µM
IC50 (NCI-H23): 4.8 µM

C=CC(=O)N1CCC(NC(=O)Nc2ccc(Cl)c(C(F)(F)F)c2)CC1
IC50 (NCI-H2228): 45.8 µM
IC50 (A549): > 100 µM
IC50 (NCI-H358): > 100 µM
IC50 (NCI-H23): > 100 µM

C=CC(=O)NC1CCN(C(=O)c2cc(=O)c3cc(Cl)c(I)cc3[nH]2)CC1
IC50 (NCI-H2228): 31.6 µM
IC50 (A549): 22.8 µM
IC50 (NCI-H358): 19.2 µM
IC50 (NCI-H23): 35.5 µM

C=CC(=O)N1CC[C@@H](NC(=O)Nc2ccc(Cl)c(Cl)c2)C1
IC50 (NCI-H2228): 61.9 µM
IC50 (A549): > 100 µM
IC50 (NCI-H358): 45.5 µM
IC50 (NCI-H23): 41.4 µM

O=C(Nc1ccc(Cl)c(C(F)(F)F)c1)NC1CCN(C(=O)CCl)CC1
IC50 (NCI-H2228): 10.6 µM
IC50 (A549): 8 µM
IC50 (NCI-H358): 3.1 µM
Activity [5]: Active
inhibition [6]: Active
inhibition [7]: inactive
IC50 (NCI-H23): 2.3 µM
Activity [8]: inactive

C=CC(=O)N1CC[C@@H](NC(=O)Nc2ccc(Cl)c(C(F)(F)F)c2)C1
IC50 (NCI-H2228): 58 µM
IC50 (A549): > 100 µM
IC50 (NCI-H358): 38.1 µM
IC50 (NCI-H23): 29.7 µM

C=CS(=O)(=O)NC1CCN(C(=O)CNc2cc(I)c(Cl)cc2OC)CC1
IC50 (NCI-H2228): 7.2 µM
IC50 (A549): 5.2 µM
IC50 (NCI-H358): 4.4 µM
IC50 at 72 h [9]: 10.3 µM
IC50 (NCI-H441): 21.5 µM
IC50 (NCI-H23): 3 µM
IC50 (SK-LU-1): 22.8 µM

C=CC(=O)N1CC[C@@H](NC(=O)c2cc(=O)c3cc(Cl)c(I)cc3[nH]2)C1
IC50 (NCI-H2228): 24.6 µM
IC50 (A549): 20.3 µM
IC50 (NCI-H358): 10 µM
IC50 (NCI-H23): 11.6 µM
